This passage reports IC50 results from ChEMBL document CHEMBL4041503, “A Hexacyclic, Iboga-Derived Monoterpenoid Indole with a Contracted Tetrahydroazepine C-Ring and Incorporation of an Isoxazolidine Moiety, a Seco-Corynanthean, an Aspidosperma-Aspidosperma Bisindole with Anticancer Properties, and the Absolute Configuration of the Pyridopyrimidine Indole Alkaloid, …” (J Nat Prod, 2016).

The term IC50 denotes the concentration at which inhibition is half-maximal.

Some results are limits rather than exact numbers.

Common to all, as to assay type: functional, cell-based
Assay [1] can be described thus: Cytotoxicity against human KB/S cells assessed as reduction in cell viability after 72 hrs by MTT assay.
In assay [2] the test system is LNCaP. In words: Cytotoxicity against human LNCAP cells assessed as reduction in cell viability after 72 hrs by MTT assay. A general note: Formazan colour is commonly taken as a measure of viable cells.
For assay [3], the system named is HT-29. The experiment in a line: Cytotoxicity against human HT-29 cells assessed as reduction in cell viability after 72 hrs by MTT assay. The note with it: HT-29, 72 h.
Assay [4] deals with A549. In words: Cytotoxicity against human A549 cells assessed as reduction in cell viability after 72 hrs by MTT assay. As to conditions: A549, 72 h.
In assay [5] the test system is HCT-116. The experiment in a line: Cytotoxicity against human HCT116 cells assessed as reduction in cell viability after 72 hrs by MTT assay. The note with it: HCT-116, 72 h.
For assay [6], the system named is PC-3. In words: Cytotoxicity against human PC3 cells assessed as reduction in cell viability after 72 hrs by MTT assay. The note with it: PC-3, 72 h.
Assay [7] concerns KB/VJ300. The experiment in a line: Cytotoxicity against human KB/VJ300 cells assessed as reduction in cell viability after 72 hrs by MTT assay. As to conditions: KB/VJ300, 72 h.
For assay [8], the system named is MCF7. In words: Cytotoxicity against human MCF7 cells assessed as reduction in cell viability after 72 hrs by MTT assay. As to conditions: MCF7, 72 h.
Assay [9] concerns MDA-MB-231. The experiment in a line: Cytotoxicity against human MDA-MB-231 cells assessed as reduction in cell viability after 72 hrs by MTT assay. As to conditions: MDA-MB-231, 72 h.

For the molecule `CC[C@]12C=CCN3CC[C@]4(C(=C(C(=O)OC)C1)Nc1cc5c(cc14)[C@@H]1[C@H](O5)[C@@H](O)[C@@]4(CC)CC(C(=O)OC)=C5Nc6c(cc(O)c(OC)c6OC)[C@@]56CCN1[C@@H]46)[C@@H]32`, the IC50 in [1] was determined as 1500 nM; in assay [2] it was 900 nM; in [3], 1100 nM; in assay [4], 10000 nM; in assay [5] it was 800 nM; in assay [6] it was 200 nM. Further, the IC50 was over 10000 nM in assay [7], 600 nM in [8] and 900 nM in [9].
`CC[C@@]12CC(C(=O)OC)=C3Nc4c(cc(O)c(OC)c4OC)[C@@]34CCN([C@@H]3c5cc6c(cc5O[C@@H]3[C@H]1O)NC1=C(C(=O)OC)C[C@]35CCO[C@H]3CCN3CC[C@@]16[C@@H]35)[C@@H]24`: the IC50 in assay [1] is 500 nM; in [2], 300 nM; in assay [3], 300 nM; in [4], over 10000 nM; in assay [5] it was 400 nM; in assay [6], 1100 nM. The IC50 in [7] was 7400 nM; in assay [8], 5900 nM; in assay [9] it was 800 nM.
Consider `CC[C@]1(O)C[C@H]2CN(CCc3c([nH]c4ccccc34)[C@@](C(=O)OC)(c3cc4c(cc3OC)N(C=O)[C@H]3[C@@](O)(C(=O)OC)[C@H](OC(C)=O)[C@]5(CC)C=CCN6CC[C@]43[C@@H]65)C2)C1` [VINCRISTINE], for which the IC50 in assay [1] stood at 2 nM; in assay [7], 5900 nM.
